The text below walks through data of BindingDB's records for doi:10.1111/j.1432-1033.1992.tb17043.x (Universit&Eacute, 1992).

Broadly, the Ki is the dissociation constant of the complex between target and ligand, obtained from inhibition or displacement. Lower therefore signals a stronger hold on the target.

This assay has as its target T1, Pituitary adenylate cyclase-activating polypeptide (Homo sapiens, UniProt P18509).
T1 sequence (P18509 whole entry): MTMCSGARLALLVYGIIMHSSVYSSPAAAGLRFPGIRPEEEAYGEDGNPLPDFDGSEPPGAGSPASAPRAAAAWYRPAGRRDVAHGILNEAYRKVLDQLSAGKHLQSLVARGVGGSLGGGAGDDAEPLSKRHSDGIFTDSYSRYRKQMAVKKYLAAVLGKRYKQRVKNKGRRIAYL

SMILES strings stand for the structures. Non-standard residues stand in square brackets, D forms with d. Residues, ends and D or L forms follow the SMILES beside them. ξ: configuration not given here. Ile(3ξ) = CCC(C)[C@H](N)C(=O)O

`CSCC[C@H](NC(=O)[C@H](CCC(N)=O)NC(=O)[C@H](CCCCN)NC(=O)[C@H](CCCNC(=N)N)NC(=O)[C@H](Cc1ccc(O)cc1)NC(=O)[C@H](CCCNC(=N)N)NC(=O)[C@H](CO)NC(=O)[C@H](Cc1ccc(O)cc1)NC(=O)[C@H](CO)NC(=O)[C@H](CC(=O)O)NC(=O)[C@@H](NC(=O)[C@@H](N)Cc1ccccc1)[C@@H](C)O)C(=O)N[C@@H](C)C(=O)N[C@H](C(=O)N[C@@H](CCCCN)C(=O)N[C@@H](CCCCN)C(=O)N[C@@H](Cc1ccc(O)cc1)C(=O)N[C@@H](CC(C)C)C(=O)N[C@@H](C)C(=O)N[C@@H](C)C(=O)N[C@H](C(=O)N[C@@H](CC(C)C)C(=O)NCC(=O)N[C@@H](CCCCN)C(=O)N[C@@H](CCCNC(=N)N)C(=O)N[C@@H](Cc1ccc(O)cc1)C(=O)N[C@@H](CCCCN)C(=O)N[C@@H](CCC(N)=O)C(=O)N[C@@H](CCCNC(=N)N)C(=O)N[C@H](C(=O)N[C@@H](CCCCN)C(=O)N[C@@H](CC(N)=O)C(=O)N[C@@H](CCCCN)C(N)=O)C(C)C)C(C)C)C(C)C` gave a Ki of 1.5 nM.

In turn, `CCC(C)[C@H](NC(=O)CNC(=O)[C@@H](N)CC(=O)O)C(=O)N[C@@H](Cc1ccccc1)C(=O)N[C@H](C(=O)N[C@@H](CC(=O)O)C(=O)N[C@@H](CO)C(=O)N[C@@H](Cc1ccc(O)cc1)C(=O)N[C@@H](CO)C(=O)N[C@@H](CCCN=C(N)N)C(=O)N[C@@H](Cc1ccc(O)cc1)C(=O)N[C@@H](CCCN=C(N)N)C(=O)N[C@@H](CCCCN)C(=O)N[C@@H](CCC(N)=O)C(=O)N[C@@H](CCSC)C(=O)N[C@@H](C)C(=O)N[C@H](C(=O)N[C@@H](CCCCN)C(=O)N[C@@H](CCCCN)C(=O)N[C@@H](Cc1ccc(O)cc1)C(=O)N[C@@H](CC(C)C)C(=O)N[C@@H](C)C(=O)N[C@@H](C)C(=O)N[C@H](C(=O)N[C@@H](CC(C)C)C(N)=O)C(C)C)C(C)C)[C@@H](C)O` (some centres undefined) [PACAP(3-27)] (H-DG[Ile(3ξ)]FTDSYSRYRKQMAVKKYLAAVL-NH2) displayed a Ki of 200 nM.

In the case of `CCC(C)[C@H](NC(=O)CN)C(=O)N[C@@H](Cc1ccccc1)C(=O)N[C@H](C(=O)N[C@@H](CC(=O)O)C(=O)N[C@@H](CO)C(=O)N[C@@H](Cc1ccc(O)cc1)C(=O)N[C@@H](CO)C(=O)N[C@@H](CCCN=C(N)N)C(=O)N[C@@H](Cc1ccc(O)cc1)C(=O)N[C@@H](CCCN=C(N)N)C(=O)N[C@@H](CCCCN)C(=O)N[C@@H](CCC(N)=O)C(=O)N[C@@H](CCSC)C(=O)N[C@@H](C)C(=O)N[C@H](C(=O)N[C@@H](CCCCN)C(=O)N[C@@H](CCCCN)C(=O)N[C@@H](Cc1ccc(O)cc1)C(=O)N[C@@H](CC(C)C)C(=O)N[C@@H](C)C(=O)N[C@@H](C)C(=O)N[C@H](C(=O)N[C@@H](CC(C)C)C(=O)NCC(=O)N[C@@H](CCCCN)C(=O)N[C@@H](CCCN=C(N)N)C(=O)N[C@@H](Cc1ccc(O)cc1)C(=O)N[C@@H](CCCCN)C(=O)N[C@@H](CCC(N)=O)C(=O)N[C@@H](CCCN=C(N)N)C(=O)N[C@H](C(=O)N[C@@H](CCCCN)C(=O)N[C@@H](CC(N)=O)C(=O)N[C@@H](CCCCN)C(N)=O)C(C)C)C(C)C)C(C)C)[C@@H](C)O` (some centres undefined) [PACAP(4-38)] (H-G[Ile(3ξ)]FTDSYSRYRKQMAVKKYLAAVLGKRYKQRVKNK-NH2), the affinity corresponds to a Ki of 5 nM.

Regarding `CCC(C)[C@H](N)C(=O)N[C@@H](Cc1ccccc1)C(=O)N[C@H](C(=O)N[C@@H](CC(=O)O)C(=O)N[C@@H](CO)C(=O)N[C@@H](Cc1ccc(O)cc1)C(=O)N[C@@H](CO)C(=O)N[C@@H](CCCN=C(N)N)C(=O)N[C@@H](Cc1ccc(O)cc1)C(=O)N[C@@H](CCCN=C(N)N)C(=O)N[C@@H](CCCCN)C(=O)N[C@@H](CCC(N)=O)C(=O)N[C@@H](CCSC)C(=O)N[C@@H](C)C(=O)N[C@H](C(=O)N[C@@H](CCCCN)C(=O)N[C@@H](CCCCN)C(=O)N[C@@H](Cc1ccc(O)cc1)C(=O)N[C@@H](CC(C)C)C(=O)N[C@@H](C)C(=O)N[C@@H](C)C(=O)N[C@H](C(=O)N[C@@H](CC(C)C)C(N)=O)C(C)C)C(C)C)[C@@H](C)O` (some centres undefined) [PACAP(5-27)] (H-[Ile(3ξ)]FTDSYSRYRKQMAVKKYLAAVL-NH2), the Ki came out at 150 nM.

On to `CCC(C)[C@H](N)C(=O)N[C@@H](Cc1ccccc1)C(=O)N[C@H](C(=O)N[C@@H](CC(=O)O)C(=O)N[C@@H](CO)C(=O)N[C@@H](Cc1ccc(O)cc1)C(=O)N[C@@H](CO)C(=O)N[C@@H](CCCN=C(N)N)C(=O)N[C@@H](Cc1ccc(O)cc1)C(=O)N[C@@H](CCCN=C(N)N)C(=O)N[C@@H](CCCCN)C(=O)N[C@@H](CCC(N)=O)C(=O)N[C@@H](CCSC)C(=O)N[C@@H](C)C(=O)N[C@H](C(=O)N[C@@H](CCCCN)C(=O)N[C@@H](CCCCN)C(=O)N[C@@H](Cc1ccc(O)cc1)C(=O)N[C@@H](CC(C)C)C(=O)N[C@@H](C)C(=O)N[C@@H](C)C(=O)N[C@H](C(=O)N[C@@H](CC(C)C)C(=O)NCC(=O)N[C@@H](CCCCN)C(=O)N[C@@H](CCCN=C(N)N)C(=O)N[C@@H](Cc1ccc(O)cc1)C(=O)N[C@@H](CCCCN)C(=O)N[C@@H](CCC(N)=O)C(=O)N[C@@H](CCCN=C(N)N)C(=O)N[C@H](C(=O)N[C@@H](CCCCN)C(=O)N[C@@H](CC(N)=O)C(=O)N[C@@H](CCCCN)C(N)=O)C(C)C)C(C)C)C(C)C)[C@@H](C)O` (some centres undefined) [PACAP(5-38)] (H-[Ile(3ξ)]FTDSYSRYRKQMAVKKYLAAVLGKRYKQRVKNK-NH2), for which the Ki was 5 nM.

`CCC(C)[C@H](NC(=O)CNC(=O)[C@H](CC(=O)O)NC(=O)[C@@H](Cc1ccccc1)NC(=O)[C@H](Cc1cnc[nH]1)NC(C)=O)C(=O)N[C@@H](Cc1ccccc1)C(=O)N[C@H](C(=O)N[C@@H](CC(=O)O)C(=O)N[C@@H](CO)C(=O)N[C@@H](Cc1ccc(O)cc1)C(=O)N[C@@H](CO)C(=O)N[C@@H](CCCN=C(N)N)C(=O)N[C@@H](Cc1ccc(O)cc1)C(=O)N[C@@H](CCCN=C(N)N)C(=O)N[C@@H](CCCCN)C(=O)N[C@@H](CCC(N)=O)C(=O)N[C@@H](CCSC)C(=O)N[C@@H](C)C(=O)N[C@H](C(=O)N[C@@H](CCCCN)C(=O)N[C@@H](CCCCN)C(=O)N[C@@H](Cc1ccc(O)cc1)C(=O)N[C@@H](CC(C)C)C(=O)N[C@@H](C)C(=O)N[C@@H](C)C(=O)N[C@H](C(=O)N[C@@H](CC(C)C)C(N)=O)C(C)C)C(C)C)[C@@H](C)O` (some centres undefined) [[AcHis1,DPhe2]PACAP(1-27)] came in with a Ki of 1000 nM. This Ki lies about 200-fold higher than the previous one.

`CC[C@H](C)[C@H](NC(=O)CNC(=O)[C@H](CC(=O)O)NC(=O)[C@@H](Cc1ccccc1)NC(=O)[C@H](Cc1cnc[nH]1)NC(C)=O)C(=O)N[C@@H](Cc1ccccc1)C(=O)N[C@H](C(=O)N[C@@H](CC(=O)O)C(=O)N[C@@H](CO)C(=O)N[C@@H](Cc1ccc(O)cc1)C(=O)N[C@@H](CO)C(=O)N[C@@H](CCCN=C(N)N)C(=O)N[C@@H](Cc1ccc(O)cc1)C(=O)N[C@@H](CCCN=C(N)N)C(=O)N[C@@H](CCCCN)C(=O)N[C@@H](CCC(N)=O)C(=O)N[C@@H](CCSC)C(=O)N[C@@H](C)C(=O)N[C@H](C(=O)N[C@@H](CCCCN)C(=O)N[C@@H](CCCCN)C(=O)N[C@@H](Cc1ccc(O)cc1)C(=O)N[C@@H](CC(C)C)C(=O)N[C@@H](C)C(=O)N[C@@H](C)C(=O)N[C@H](C(=O)N[C@@H](CC(C)C)C(=O)NCC(=O)N[C@@H](CCCCN)C(=O)N[C@@H](CCCN=C(N)N)C(=O)N[C@@H](Cc1ccc(O)cc1)C(=O)N[C@@H](CCCCN)C(=O)N[C@@H](CCC(N)=O)C(=O)N[C@@H](CCCN=C(N)N)C(=O)N[C@H](C(=O)N[C@@H](CCCCN)C(=O)N[C@@H](CC(N)=O)C(=O)N[C@@H](CCCCN)C(N)=O)C(C)C)C(C)C)C(C)C)[C@@H](C)O` [[AcHis1,DPhe2]PACAP(1-38)]: the Ki was determined as 10 nM. This Ki is about 100-fold lower than that of the compound before.

Compound `CCC(C)[C@H](NC(=O)CNC(=O)[C@H](CC(=O)O)NC(=O)[C@H](Cc1ccccc1)NC(=O)[C@H](Cc1cnc[nH]1)NC(C)=O)C(=O)N[C@@H](Cc1ccccc1)C(=O)N[C@H](C(=O)N[C@@H](CC(=O)O)C(=O)N[C@@H](CO)C(=O)N[C@@H](Cc1ccc(O)cc1)C(=O)N[C@@H](CO)C(=O)N[C@@H](CCCN=C(N)N)C(=O)N[C@@H](Cc1ccc(O)cc1)C(=O)N[C@@H](CCCN=C(N)N)C(=O)N[C@@H](CCCCN)C(=O)N[C@@H](CCC(N)=O)C(=O)N[C@@H](CCSC)C(=O)N[C@@H](C)C(=O)N[C@H](C(=O)N[C@@H](CCCCN)C(=O)N[C@@H](CCCCN)C(=O)N[C@@H](Cc1ccc(O)cc1)C(=O)N[C@@H](CC(C)C)C(=O)N[C@@H](C)C(=O)N[C@@H](C)C(=O)N[C@H](C(=O)N[C@@H](CC(C)C)C(N)=O)C(C)C)C(C)C)[C@@H](C)O` (some centres undefined) [[AcHis1,Phe2]PACAP(1-27)] yielded a Ki of 100 nM. This Ki is about 10-fold higher than that of the compound before.

In turn, `CCC(C)[C@H](NC(=O)CNC(=O)[C@H](CC(=O)O)NC(=O)[C@H](Cc1ccccc1)NC(=O)[C@H](Cc1cnc[nH]1)NC(C)=O)C(=O)N[C@@H](Cc1ccccc1)C(=O)N[C@H](C(=O)N[C@@H](CC(=O)O)C(=O)N[C@@H](CO)C(=O)N[C@@H](Cc1ccc(O)cc1)C(=O)N[C@@H](CO)C(=O)N[C@@H](CCCN=C(N)N)C(=O)N[C@@H](Cc1ccc(O)cc1)C(=O)N[C@@H](CCCN=C(N)N)C(=O)N[C@@H](CCCCN)C(=O)N[C@@H](CCC(N)=O)C(=O)N[C@@H](CCSC)C(=O)N[C@@H](C)C(=O)N[C@H](C(=O)N[C@@H](CCCCN)C(=O)N[C@@H](CCCCN)C(=O)N[C@@H](Cc1ccc(O)cc1)C(=O)N[C@@H](CC(C)C)C(=O)N[C@@H](C)C(=O)N[C@@H](C)C(=O)N[C@H](C(=O)N[C@@H](CC(C)C)C(=O)NCC(=O)N[C@@H](CCCCN)C(=O)N[C@@H](CCCN=C(N)N)C(=O)N[C@@H](Cc1ccc(O)cc1)C(=O)N[C@@H](CCCCN)C(=O)N[C@@H](CCC(N)=O)C(=O)N[C@@H](CCCN=C(N)N)C(=O)N[C@H](C(=O)N[C@@H](CCCCN)C(=O)N[C@@H](CC(N)=O)C(=O)N[C@@H](CCCCN)C(N)=O)C(C)C)C(C)C)C(C)C)[C@@H](C)O` (some centres undefined) [[AcHis1,Phe2]PACAP(1-38)] gave a Ki of 10 nM.
